Assay results as given in the CheMixHub viscosity set.
Where “and” joins values, the source holds several entries; their conditions need not be identical. Equal values may be shown once. ± gives the uncertainty stated by the source.

Assay: xn = mol fraction of the nth substance listed

CCCCN(CCCC)CCCC + CCO
viscosity [mPa·s], 101.33 kPa
Settings	298.15 K	303.15 K	308.15 K	313.15 K	318.15 K	323.15 K
x1 = 0.0992	–	1.26 ± 0.076	–	1.084 ± 0.066	–	0.951 ± 0.057
x1 = 0.1034	1.393 ± 0.084	–	1.17 ± 0.071	–	1.011 ± 0.061	–
x1 = 0.1456	1.458 ± 0.088	–	1.225 ± 0.074	–	1.06 ± 0.064	–
x1 = 0.1561	–	1.334 ± 0.081	–	1.151 ± 0.07	–	1.015 ± 0.061
x1 = 0.1969	–	1.357 ± 0.082	–	1.174 ± 0.071	–	1.035 ± 0.063
x1 = 0.2099	1.508 ± 0.091	–	1.267 ± 0.077	–	1.094 ± 0.066	–
x1 = 0.2529	1.52 ± 0.092	1.371 ± 0.083	1.276 ± 0.077	1.183 ± 0.071	1.098 ± 0.066	1.04 ± 0.063
x1 = 0.2945	–	1.367 ± 0.083	–	1.18 ± 0.071	–	1.033 ± 0.062
x1 = 0.3036	1.52 ± 0.092	–	1.274 ± 0.077	–	1.091 ± 0.066	–
x1 = 0.3531	1.511 ± 0.091	–	1.265 ± 0.076	–	1.078 ± 0.065	–
x1 = 0.3639	–	1.349 ± 0.082	–	1.163 ± 0.07	–	1.012 ± 0.061
x1 = 0.3986	1.501 ± 0.091	1.341 ± 0.081	1.255 ± 0.076	1.153 ± 0.07	1.065 ± 0.064	1 ± 0.06
x1 = 0.4508	1.488 ± 0.09	1.325 ± 0.08	1.242 ± 0.075	1.137 ± 0.069	1.049 ± 0.063	0.982 ± 0.059
x1 = 0.4951	1.477 ± 0.089	–	1.231 ± 0.074	–	1.036 ± 0.063	–
x1 = 0.503	–	1.309 ± 0.079	–	1.122 ± 0.068	–	0.967 ± 0.058
x1 = 0.5448	1.467 ± 0.089	–	1.221 ± 0.074	–	1.024 ± 0.062	–
x1 = 0.5537	–	1.294 ± 0.078	–	1.11 ± 0.067	–	0.954 ± 0.058
x1 = 0.601	1.458 ± 0.088	–	1.211 ± 0.073	–	1.012 ± 0.061	–
x1 = 0.6426	–	1.267 ± 0.077	–	1.09 ± 0.066	–	0.936 ± 0.057
x1 = 0.6648	1.448 ± 0.088	–	1.199 ± 0.072	–	0.998 ± 0.06	–
x1 = 0.7126	1.441 ± 0.087	–	1.19 ± 0.072	–	0.988 ± 0.06	–
x1 = 0.7382	–	1.249 ± 0.075	–	1.067 ± 0.064	–	0.915 ± 0.055
x1 = 0.7934	1.424 ± 0.086	–	1.173 ± 0.071	–	0.967 ± 0.058	–
x1 = 0.8711	–	1.207 ± 0.073	–	1.027 ± 0.062	–	0.876 ± 0.053
x1 = 0.9196	–	1.186 ± 0.072	–	1.012 ± 0.061	–	0.861 ± 0.052
x1 = 0.9232	1.391 ± 0.084	–	1.138 ± 0.069	–	0.928 ± 0.056	–
x1 = 0.9604	–	1.176 ± 0.071	–	1.002 ± 0.061	–	0.851 ± 0.051

CCCCN(CCCC)CCCC + CO
viscosity [mPa·s], 101.33 kPa
Settings	298.15 K	303.15 K	308.15 K	313.15 K	318.15 K	323.15 K
x1 = 0.1015	–	0.881 ± 0.053	–	0.778 ± 0.047	–	0.675 ± 0.041
x1 = 0.1093	1.013 ± 0.061	–	0.889 ± 0.054	–	0.735 ± 0.044	–
x1 = 0.1551	–	1.008 ± 0.061	–	0.896 ± 0.054	–	0.787 ± 0.048
x1 = 0.2027	1.21 ± 0.073	–	1.07 ± 0.065	–	0.919 ± 0.056	–
x1 = 0.2166	–	1.106 ± 0.067	–	0.994 ± 0.06	–	0.895 ± 0.054
x1 = 0.256	1.278 ± 0.077	–	1.132 ± 0.068	–	0.992 ± 0.06	–
x1 = 0.2933	–	1.177 ± 0.071	–	1.068 ± 0.065	–	0.984 ± 0.059
x1 = 0.3035	1.319 ± 0.08	–	1.169 ± 0.071	–	1.036 ± 0.063	–
x1 = 0.3493	–	1.208 ± 0.073	–	1.101 ± 0.067	–	1.027 ± 0.062
x1 = 0.362	1.353 ± 0.082	–	1.197 ± 0.072	–	1.066 ± 0.064	–
x1 = 0.404	1.369 ± 0.083	–	1.208 ± 0.073	–	1.073 ± 0.065	–
x1 = 0.4195	–	1.228 ± 0.074	–	1.12 ± 0.068	–	1.044 ± 0.063
x1 = 0.4528	1.383 ± 0.084	–	1.215 ± 0.073	–	1.07 ± 0.065	–
x1 = 0.4998	–	1.235 ± 0.075	–	1.118 ± 0.068	–	1.03 ± 0.062
x1 = 0.5101	1.394 ± 0.084	–	1.216 ± 0.073	–	1.054 ± 0.064	–
x1 = 0.5426	–	1.235 ± 0.075	–	1.108 ± 0.067	–	1.011 ± 0.061
x1 = 0.5541	1.4 ± 0.085	–	1.213 ± 0.073	–	1.036 ± 0.063	–
x1 = 0.604	1.404 ± 0.085	–	1.208 ± 0.073	–	1.014 ± 0.061	–
x1 = 0.6175	–	1.232 ± 0.074	–	1.093 ± 0.066	–	0.974 ± 0.059
x1 = 0.6459	–	1.233 ± 0.075	–	1.085 ± 0.066	–	0.961 ± 0.058
x1 = 0.6609	1.408 ± 0.085	–	1.2 ± 0.073	–	0.989 ± 0.06	–
x1 = 0.6925	1.409 ± 0.085	–	1.194 ± 0.072	–	0.977 ± 0.059	–
x1 = 0.7057	–	1.224 ± 0.074	–	1.069 ± 0.065	–	0.932 ± 0.056
x1 = 0.7264	1.409 ± 0.085	–	1.188 ± 0.072	–	0.966 ± 0.058	–
x1 = 0.763	–	1.217 ± 0.074	–	1.052 ± 0.064	–	0.911 ± 0.055
x1 = 0.8027	1.405 ± 0.085	–	1.172 ± 0.071	–	0.95 ± 0.057	–
x1 = 0.8237	–	1.205 ± 0.073	–	1.039 ± 0.063	–	0.897 ± 0.054
x1 = 0.8877	–	1.19 ± 0.072	–	1.022 ± 0.062	–	0.885 ± 0.053
x1 = 0.8925	1.395 ± 0.084	–	1.151 ± 0.07	–	0.941 ± 0.057	–
x1 = 0.9438	–	1.178 ± 0.071	–	1.011 ± 0.061	–	0.873 ± 0.053

CC(C)(N)CO + O
viscosity
Settings	303.15 K	308.15 K	313.15 K	318.15 K	323.15 K
100 kPa, x1 = 0.01	–	–	0.77 ± 0.05 mPa·s	–	–
100 kPa, x1 = 0.022	–	–	0.93 ± 0.06 mPa·s	–	–
100 kPa, x1 = 0.048	–	–	1.36 ± 0.08 mPa·s	–	–
100 kPa, x1 = 0.12	–	–	3.15 ± 0.19 mPa·s	–	–
101 kPa, x1 = 0.0105	0.88 ± 0.14 mPa·s	0.79 ± 0.13 mPa·s	0.72 ± 0.12 mPa·s	0.65 ± 0.1 mPa·s	0.52 ± 0.08 mPa·s
101 kPa, x1 = 0.0539	1.8 ± 0.29 mPa·s	1.59 ± 0.25 mPa·s	1.39 ± 0.22 mPa·s	1.23 ± 0.2 mPa·s	1 ± 0.16 mPa·s
101 kPa, x1 = 0.0728	2.48 ± 0.4 mPa·s	2.1 ± 0.34 mPa·s	1.8 ± 0.29 mPa·s	1.56 ± 0.25 mPa·s	1.29 ± 0.21 mPa·s
101 kPa, x1 = 0.1	3.54 ± 0.57 mPa·s	2.74 ± 0.44 mPa·s	2.29 ± 0.37 mPa·s	1.96 ± 0.31 mPa·s	1.7 ± 0.27 mPa·s and 1.95 ± 0.08 mPa·s
101 kPa, x1 = 0.1571	6.33 ± 1 mPa·s	4.28 ± 0.69 mPa·s	3.11 ± 0.5 mPa·s	2.86 ± 0.46 mPa·s	2.58 ± 0.41 mPa·s
101 kPa, x1 = 0.2	11.06 ± 0.45 mPa·s	–	6.65 ± 0.27 mPa·s	–	4.14 ± 0.17 mPa·s
101 kPa, x1 = 0.2559	13.3 ± 2.1 mPa·s	7.93 ± 1.3 mPa·s	5.49 ± 0.88 mPa·s	5.09 ± 0.82 mPa·s	4.51 ± 0.72 mPa·s
101 kPa, x1 = 0.3	20.33 ± 0.82 mPa·s	–	11.74 ± 0.48 mPa·s	–	7.18 ± 0.29 mPa·s
101 kPa, x1 = 0.3532	23.78 ± 3.8 mPa·s	16.16 ± 2.6 mPa·s	12.24 ± 2 mPa·s	9.26 ± 1.5 mPa·s	7.5 ± 1.2 mPa·s
101 kPa, x1 = 0.4	32.25 ± 1.3 mPa·s	–	18.35 ± 0.75 mPa·s	–	11.9 ± 0.48 mPa·s
101 kPa, x1 = 0.4546	41.28 ± 6.6 mPa·s	27.92 ± 4.5 mPa·s	20.29 ± 3.3 mPa·s	15.33 ± 2.5 mPa·s	10.88 ± 1.8 mPa·s
101 kPa, x1 = 0.5	53.64 ± 2.2 mPa·s	–	25.49 ± 1.1 mPa·s	–	15.29 ± 0.62 mPa·s
101 kPa, x1 = 0.5537	56.6 ± 9.1 mPa·s	38.93 ± 6.3 mPa·s	28.36 ± 4.6 mPa·s	20.9 ± 3.4 mPa·s	14.59 ± 2.4 mPa·s
101 kPa, x1 = 0.6	60.63 ± 2.5 mPa·s	–	33.17 ± 1.4 mPa·s	–	16.56 ± 0.68 mPa·s
101 kPa, x1 = 0.658	71.44 ± 12 mPa·s	49.28 ± 8 mPa·s	35.14 ± 5.7 mPa·s	25.89 ± 4.2 mPa·s	18.35 ± 3 mPa·s
101 kPa, x1 = 0.7	82.98 ± 3.4 mPa·s	–	43.03 ± 1.8 mPa·s	–	20.8 ± 0.85 mPa·s
101 kPa, x1 = 0.7001	76.44 ± 12 mPa·s	53.22 ± 8.6 mPa·s	37.3 ± 6 mPa·s	27.62 ± 4.5 mPa·s	19.8 ± 3.2 mPa·s
101 kPa, x1 = 0.8	91.29 ± 3.8 mPa·s	–	46.27 ± 1.9 mPa·s	–	22.2 ± 0.91 mPa·s
101 kPa, x1 = 0.8108	85.3 ± 14 mPa·s	57.86 ± 9.4 mPa·s	41.82 ± 6.8 mPa·s	31.42 ± 5.1 mPa·s	22.59 ± 3.7 mPa·s
101 kPa, x1 = 0.9	96.39 ± 4 mPa·s	–	47.42 ± 1.9 mPa·s	–	23.4 ± 0.96 mPa·s
101 kPa, x1 = 0.9082	88.75 ± 14 mPa·s	60 ± 9.7 mPa·s	43 ± 7 mPa·s	32.18 ± 5.2 mPa·s	22.98 ± 3.7 mPa·s
101.33 kPa, x1 = 0.048	1.866 ± 0.045 mPa·s	–	1.405 ± 0.035 mPa·s	–	1.099 ± 0.028 mPa·s
101.33 kPa, x1 = 0.08	3.053 ± 0.072 mPa·s	–	2.168 ± 0.052 mPa·s	–	1.621 ± 0.04 mPa·s
